Results on 24 molecules are retold here after patent US9328112B2, “Tetracyclic CDK9 kinase inhibitors” (AbbVie Inc., priority 2014, dated 2016).

In one assay the test system is H929 cells. The assay is described as follows: Cell viability assay (Cell TiterGlo). The assay is classed as cell-based. Conditions: Homo sapiens, NCI-H929, 24 hours at 37° C., Cell TiterGlo luminescence. The method, then: The cell viability assay was performed using H929 cells. Cells were seeded in 96-well plates at 10,000 cells/well and, after overnight incubation, treated with compounds in a dose response of 3-fold dilutions from 10 μM to 0.005 μM ([…], 0.1% final DMSO concentration). After 24 hours at 37° C., cell viability was measured using Cell TiterGlo reagent (Promega) with a luminescence reader.
A general note: In ATP-based viability assays light output follows the ATP content of the culture.

For the next assay, the target named is CDK9/Cyclin T1 (Homo sapiens (Human), UniProt P50750). The assay is described as follows: CDK9 enzyme assay (LANCE ULight TR-FRET kinase assay). The following applies: 1000 μM ATP, 100 nM ULight MBP, kinase reaction 1 hour. The format is biochemical. Summed up:
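Human CDK9/Cyclin T1 phosphorylating 100 nM ULight-MBP with 1000 μM ATP in HEPES/MgCl2 buffer, 1 h reaction. Stopped with 20 mM EDTA plus 0.5 nM Eu anti-phospho-MBP antibody, incubated 1 h, read by TR-FRET (ex 320 nm, em 615/665 nm).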

Sequence of CDK9/Cyclin T1 (P50750 whole entry): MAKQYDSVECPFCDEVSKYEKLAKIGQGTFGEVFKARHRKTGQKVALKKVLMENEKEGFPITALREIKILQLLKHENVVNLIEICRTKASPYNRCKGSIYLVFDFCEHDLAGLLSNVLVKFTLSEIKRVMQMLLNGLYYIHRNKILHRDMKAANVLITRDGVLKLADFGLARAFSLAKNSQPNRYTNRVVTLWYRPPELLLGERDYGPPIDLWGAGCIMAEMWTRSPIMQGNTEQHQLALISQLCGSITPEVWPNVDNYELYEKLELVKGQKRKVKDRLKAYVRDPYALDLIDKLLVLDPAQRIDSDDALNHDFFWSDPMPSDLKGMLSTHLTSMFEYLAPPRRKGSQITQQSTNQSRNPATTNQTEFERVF
Sequence of CDK9/Cyclin T1 (O60563 whole entry partner): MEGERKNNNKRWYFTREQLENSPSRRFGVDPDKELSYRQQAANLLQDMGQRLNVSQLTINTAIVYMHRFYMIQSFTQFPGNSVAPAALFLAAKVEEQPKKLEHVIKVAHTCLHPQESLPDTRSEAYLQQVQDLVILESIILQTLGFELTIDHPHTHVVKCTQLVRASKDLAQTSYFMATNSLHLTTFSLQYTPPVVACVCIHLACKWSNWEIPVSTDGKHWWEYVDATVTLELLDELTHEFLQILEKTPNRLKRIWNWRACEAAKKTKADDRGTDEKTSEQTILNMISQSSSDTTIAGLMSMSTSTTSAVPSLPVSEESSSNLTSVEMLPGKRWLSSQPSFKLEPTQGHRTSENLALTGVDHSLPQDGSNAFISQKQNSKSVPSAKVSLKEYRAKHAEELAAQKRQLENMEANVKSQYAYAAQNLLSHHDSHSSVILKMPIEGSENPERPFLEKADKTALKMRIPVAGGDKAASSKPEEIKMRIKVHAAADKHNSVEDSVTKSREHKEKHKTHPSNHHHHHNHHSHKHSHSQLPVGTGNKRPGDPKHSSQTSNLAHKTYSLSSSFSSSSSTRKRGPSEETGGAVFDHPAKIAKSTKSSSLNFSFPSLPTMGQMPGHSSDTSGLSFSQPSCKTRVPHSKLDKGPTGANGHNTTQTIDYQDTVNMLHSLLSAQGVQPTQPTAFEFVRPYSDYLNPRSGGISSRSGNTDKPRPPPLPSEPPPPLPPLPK

Take `CN(C)C(=O)CN1CC2C=C(c3[nH]c4nccc5c4c3CN(C)c3ccc(F)cc3-5)CC2C1` (stereo not drawn) [Example 77, 2-[5-(10-fluoro-7-methyl-6,7-dihydro-4H-3,4,7-triazadibenzo[cd,f]azulen-5-yl)-3,3a,4,6a-tetrahydrocyclopenta[c]pyrrol-2(1H)-yl]-N,N-dimethylacetamide]: the IC50 (as a rule, the concentration needed to halve the response being measured) with H929 cells is 78 nM; against CDK9/Cyclin T1, 46 nM.
With `CN1Cc2c(C3=CC4CN(S(C)(=O)=O)CC4C3)[nH]c3nccc(c23)-c2cc(F)ccc21` (stereo not drawn) [Example 78, 10-fluoro-7-methyl-5-[2-(methylsulfonyl)-1,2,3,3a,4,6a-hexahydrocyclopenta[c]pyrrol-5-yl]-6,7-dihydro-4H-3,4,7-triazadibenzo[cd,f]azulene], the values for the IC50 in the assay on H929 cells and at CDK9/Cyclin T1 were 30 nM and 62 nM, respectively.
In the case of `CN1Cc2c(C3=C[C@H]4CC[C@@H](C3)N4CC(=O)N3CCC[C@H]3CO)[nH]c3nccc(c23)-c2cc(F)ccc21` [Example 79, 2-[(1R,5S)-3-(10-fluoro-7-methyl-6,7-dihydro-4H-3,4,7-triazadibenzo[cd,f]azulen-5-yl)-8-azabicyclo[3.2.1]oct-2-en-8-yl]-1-[(2S)-2-(hydroxymethyl)pyrrolidin-1-yl]ethanone], the IC50 came out at 49 nM with H929 cells and 72 nM against CDK9/Cyclin T1.
For `CN1Cc2c(C3=C[C@H]4CC[C@@H](C3)N4CC(=O)N3CC(O)C3)[nH]c3nccc(c23)-c2cc(F)ccc21` [Example 80, 2-[(1R,5S)-3-(10-fluoro-7-methyl-6,7-dihydro-4H-3,4,7-triazadibenzo[cd,f]azulen-5-yl)-8-azabicyclo[3.2.1]oct-2-en-8-yl]-1-(3-hydroxyazetidin-1-yl)ethanone] the same measures were 190 nM and 97 nM.
For `CN1Cc2c(-c3ccc(CC(=O)O)cc3)[nH]c3nccc(c23)-c2cc(F)ccc21` [Example 81, [4-(10-fluoro-7-methyl-6,7-dihydro-4H-3,4,7-triazadibenzo[cd,f]azulen-5-yl)phenyl]acetic acid], in that order: 790 nM and 68 nM.
With `CN1Cc2c(-c3cccc(CC(=O)O)c3)[nH]c3nccc(c23)-c2cc(F)ccc21` [Example 82, [3-(10-fluoro-7-methyl-6,7-dihydro-4H-3,4,7-triazadibenzo[cd,f]azulen-5-yl)phenyl]acetic acid], the half-maximal inhibitory concentration (IC50) in the assay on H929 cells turned out to be 4700 nM; against CDK9/Cyclin T1 it was 100 nM.
Take `CN(CC(O)CO)C(=O)CN1[C@H]2CC[C@@H]1C=C(c1[nH]c3nccc4c3c1CN(C)c1ccc(F)cc1-4)C2` (stereo partly drawn) [Example 83, N-(2,3-dihydroxypropyl)-2-[(1R,5S)-3-(10-fluoro-7-methyl-6,7-dihydro-4H-3,4,7-triazadibenzo[cd,f]azulen-5-yl)-8-azabicyclo[3.2.1]oct-2-en-8-yl]-N-methylacetamide]: the concentration for half-maximal inhibition (IC50) in the assay with H929 cells and on CDK9/Cyclin T1 was 140 nM in each case.
Regarding `CN1Cc2c(C3=CC4CN(CC(=O)N5CC(O)C5)CC4C3)[nH]c3nccc(c23)-c2cc(F)ccc21` (stereo not drawn) [Example 84, 2-[5-(10-fluoro-7-methyl-6,7-dihydro-4H-3,4,7-triazadibenzo[cd,f]azulen-5-yl)-3,3a,4,6a-tetrahydrocyclopenta[c]pyrrol-2(1H)-yl]-1-(3-hydroxyazetidin-1-yl)ethanone], the values for the IC50 with H929 cells and at CDK9/Cyclin T1 were 180 nM and 94 nM, respectively.
Turning to `CN(CC(O)CO)C(=O)CN1CC2C=C(c3[nH]c4nccc5c4c3CN(C)c3ccc(F)cc3-5)CC2C1` (stereo not drawn) [Example 85, N-(2,3-dihydroxypropyl)-2-[5-(10-fluoro-7-methyl-6,7-dihydro-4H-3,4,7-triazadibenzo[cd,f]azulen-5-yl)-3,3a,4,6a-tetrahydrocyclopenta[c]pyrrol-2(1H)-yl]-N-methylacetamide], the IC50 in the assay on H929 cells worked out at 250 nM; on CDK9/Cyclin T1, 99 nM.
Consider `CN(CCO)C(=O)CN1CC2C=C(c3[nH]c4nccc5c4c3CN(C)c3ccc(F)cc3-5)CC2C1` (stereo not drawn) [Example 86, 2-[5-(10-fluoro-7-methyl-6,7-dihydro-4H-3,4,7-triazadibenzo[cd,f]azulen-5-yl)-3,3a,4,6a-tetrahydrocyclopenta[c]pyrrol-2(1H)-yl]-N-(2-hydroxyethyl)-N-methylacetamide], for which the values for the 50% inhibitory concentration (IC50) in the assay with H929 cells and on CDK9/Cyclin T1 were 94 nM and 43 nM, respectively.
For `CN1Cc2c(C3=CCCNCC3)[nH]c3nccc(c23)-c2cc(F)ccc21` [Example 87, 10-fluoro-7-methyl-5-(2,3,6,7-tetrahydro-1H-azepin-4-yl)-6,7-dihydro-4H-3,4,7-triazadibenzo[cd,f]azulene], the IC50 in the assay with H929 cells amounted to 100 nM; against CDK9/Cyclin T1 it was 90 nM.
For `CN(C)C(=O)CN1CCC=C(c2[nH]c3nccc4c3c2CN(C)c2ccc(F)cc2-4)CC1` [Example 88, 2-[4-(10-fluoro-7-methyl-6,7-dihydro-4H-3,4,7-triazadibenzo[cd,f]azulen-5-yl)-2,3,6,7-tetrahydro-1H-azepin-1-yl]-N,N-dimethylacetamide], in that order: 150 nM and 150 nM.
Regarding `CN1Cc2c(C3=CCCN(S(C)(=O)=O)CC3)[nH]c3nccc(c23)-c2cc(F)ccc21` [Example 89, 10-fluoro-7-methyl-5-[1-(methylsulfonyl)-2,3,6,7-tetrahydro-1H-azepin-4-yl]-6,7-dihydro-4H-3,4,7-triazadibenzo[cd,f]azulene], the results for the IC50 in the assay with H929 cells and against CDK9/Cyclin T1 were 230 nM and 120 nM, respectively.
For `CN1Cc2c(C3=CCCN(CC(=O)O)CC3)[nH]c3nccc(c23)-c2cc(F)ccc21` [Example 90, [4-(10-fluoro-7-methyl-6,7-dihydro-4H-3,4,7-triazadibenzo[cd,f]azulen-5-yl)-2,3,6,7-tetrahydro-1H-azepin-1-yl]acetic acid] the same measures were 1900 nM and 170 nM.
For `CN1Cc2c(C3=CCCN(CC(=O)N4CC(O)C4)CC3)[nH]c3nccc(c23)-c2cc(F)ccc21` [Example 91, 2-[4-(10-fluoro-7-methyl-6,7-dihydro-4H-3,4,7-triazadibenzo[cd,f]azulen-5-yl)-2,3,6,7-tetrahydro-1H-azepin-1-yl]-1-(3-hydroxyazetidin-1-yl)ethanone] the same measures were 220 nM and 180 nM.
With `CN1Cc2c(C3=CCNCC3(C)C)[nH]c3nccc(c23)-c2cc(F)ccc21` [Example 92, 5-(3,3-dimethyl-1,2,3,6-tetrahydropyridin-4-yl)-10-fluoro-7-methyl-6,7-dihydro-4H-3,4,7-triazadibenzo[cd,f]azulene], the IC50 amounted to 1200 nM in the assay on H929 cells and 420 nM on CDK9/Cyclin T1.
On to `CN1Cc2c(C3=CCCNC3)[nH]c3nccc(c23)-c2cc(F)ccc21` [Example 93, 10-fluoro-7-methyl-5-(1,2,5,6-tetrahydropyridin-3-yl)-6,7-dihydro-4H-3,4,7-triazadibenzo[cd,f]azulene], for which the figures for the IC50 with H929 cells and against CDK9/Cyclin T1 were 110 nM and 46 nM, respectively.
With `CN1Cc2c(C3=CC4CN(CC(=O)N(C)C5CC(O)C5)CC4C3)[nH]c3nccc(c23)-c2cc(F)ccc21` (stereo not drawn) [Example 94, 2-[5-(10-fluoro-7-methyl-6,7-dihydro-4H-3,4,7-triazadibenzo[cd,f]azulen-5-yl)-3,3a,4,6a-tetrahydrocyclopenta[c]pyrrol-2 (1H)-yl]-N-(3-hydroxycyclobutyl)-N-methylacetamide], the IC50 worked out at 91 nM in the assay with H929 cells and 100 nM at CDK9/Cyclin T1.
With `CN1Cc2c(C3=CCCN(S(C)(=O)=O)C3)[nH]c3nccc(c23)-c2cc(F)ccc21` [Example 95, 10-fluoro-7-methyl-5-[1-(methylsulfonyl)-1,2,5,6-tetrahydropyridin-3-yl]-6,7-dihydro-4H-3,4,7-triazadibenzo[cd,f]azulene], the values for the IC50 in the assay on H929 cells and on CDK9/Cyclin T1 were 1200 nM and 130 nM, respectively.
With `CNC(=O)N1CCC=C(c2[nH]c3nccc4c3c2CN(C)c2ccc(F)cc2-4)C1` [Example 96, 5-(10-fluoro-7-methyl-6,7-dihydro-4H-3,4,7-triazadibenzo[cd,f]azulen-5-yl)-N-methyl-3,6-dihydropyridine-1(2H)-carboxamide], the IC50 with H929 cells was determined as 680 nM; at CDK9/Cyclin T1 it was 180 nM.
`CN(C)C(=O)CN1CCC=C(c2[nH]c3nccc4c3c2CN(C)c2ccc(F)cc2-4)C1` [Example 97, 2-[5-(10-fluoro-7-methyl-6,7-dihydro-4H-3,4,7-triazadibenzo[cd,f]azulen-5-yl)-3,6-dihydropyridin-1(2H)-yl]-N,N-dimethylacetamide]: the values for the IC50 in the assay on H929 cells and at CDK9/Cyclin T1 were 580 nM and 420 nM, respectively.
Consider `CN1Cc2c(C3=C[C@H]4CC[C@@H](C3)N4CC(=O)N(C)C3CC(O)C3)[nH]c3nccc(c23)-c2cc(F)ccc21` (stereo partly drawn) [Example 98, 2-[(1R,5S)-3-(10-fluoro-7-methyl-6,7-dihydro-4H-3,4,7-triazadibenzo[cd,f]azulen-5-yl)-8-azabicyclo[3.2.1]oct-2-en-8-yl]-N-(3-hydroxycyclobutyl)-N-methylacetamide], for which the IC50 in the assay with H929 cells came to 150 nM; at CDK9/Cyclin T1, 73 nM.
Take `CN1Cc2c(C3=CC4CCCC(C3)N4S(C)(=O)=O)[nH]c3nccc(c23)-c2cc(F)ccc21` (stereo not drawn) [Example 99, 10-fluoro-7-methyl-5-[9-(methylsulfonyl)-9-azabicyclo[3.3.1]non-2-en-3-yl]-6,7-dihydro-4H-3,4,7-triazadibenzo[cd,f]azulene]: the figures for the IC50 with H929 cells and against CDK9/Cyclin T1 were 2600 nM and 400 nM, respectively.
For `CNC(=O)N1C2C=C(c3[nH]c4nccc5c4c3CN(C)c3ccc(F)cc3-5)CC1CCC2` (stereo not drawn) [Example 100, 3-(10-fluoro-7-methyl-6,7-dihydro-4H-3,4,7-triazadibenzo[cd,f]azulen-5-yl)-N-methyl-9-azabicyclo[3.3.1]non-2-ene-9-carboxamide], the IC50 in the assay with H929 cells stood at 1200 nM; at CDK9/Cyclin T1, 83 nM.
